Columns and labels:
[1] = molecular target: T1, JAK2 JH2 (Homo sapiens, UniProt O60674); experiment: JAK2 JH2 TR-FRET Assay; type: binding; settings: JAK2 JH2 1 nM, Tracer ZE84-0003 10 nM
T1 construct: Enzyme: JAK2 JH2, His-Avi-Tag, Biotin-Labeled (BPS Bioscience, Cat #79074) 1 nM; His; purchased BPS Bioscience 79074
Procedure: Assay Buffer 1×: • 20 mM HEPES pH 7.2-7.4; • 10 mM MgCl2; • 0.015% Brij-35; • 2 mM DTT; • 0.05 mg/ml BSA.
Final assay concentrations: • DMSO: 0.25%; • Streptavidin Tb-cryptate (Cisbio, Cat #610SATLB) 0.2 nM; • Enzyme: JAK2 JH2, His-Avi-Tag, Biotin-Labeled (BPS Bioscience, Cat #79074) 1 nM; • Probe: Tracer ZE84-0003 (ChemRar) 10 nM.
Materials: • Reaction plate: ProxiPlate-384 Plus White Plate (PerkinElmer); • Dilution plate: Diamond Well Plate (Axygen, Cat #P-384-120 SQ-C-S); • Compounds plate: Diamond Well Plate (Axygen, Cat #P-384-120 SQ-C-S).
Assay protocol: • 1. Prepare 400× solutions of compounds in DMSO into Compounds plate; • 2. Prepare Dilution plate: add 39 μL of 1× Assay buffer per well of Dilution plate; • 3. Prepare 2×Tb-cryptate mix in 1× Assay buffer. Add 10 μL of 2×Tb-cryptate mix to K-(Tb-cryptate and Probe without Enzyme) wells and blank (Tb-cryptate without Probe and Enzyme) wells; • 4. Add JAK2 JH2 into the rest of 2×Tb-cryptate mix to make 2×JAK2 JH2+Tb-cryptate mix. Add 10 μL per well into Reaction plate; • 5. Centrifuge plate at 200 g for 1 min; • 6. Dilute 1 μL of 400× compounds in 39 μL 1× Assay buffer in Dilution plate; • 7. Add 2 μL of 10× compounds from Dilution plate to Reaction plate with 10 μL of JAK2 JH2+Tb-cryptate mix; • 8. Centrifuge plate at 200 g for 1 min; • 9. Pre-incubate Reaction plate with compounds 15 min; • 10. Prepare 2.5× Tracer mix; • 11. Add 8 μL of 2.5× Tracer mix into appropriate wells of Reaction plate; • 12. Centrifuge plate at 800 g for 3 min; • 13. Incubate at rt for 15 min; • 14. Measure Fluorescence using Microplate Reader (Ex: TR, Em1/Em2: 482/520). The results of this assay are shown in the Table B. The values of EC50 shown as a letters A-D, where: A≤0.01 μM; 0.01 μM<B≤0.05 μM; 0.05 μM<C≤0.1 μM; D>0.1.

[2] = test system: Ba/F3 (JAK2 V617F) cells; experiment: Proliferation inhibition assay (CellTiter-Glo), Ba/F3 JAK2 V617F; type: cell-based; settings: Mus musculus, BaF3; without IL3, 72 h; read-out: Ba/F3 JAK2 V617F, CC50 3 days
Procedure: (§1) Ba/F3 (JAK2 wt) (ABM, T3076) cells and Ba/F3 (JAK2 V617F) (WuXi AppTec) cells were grown in RPMI-1640 (Gibco, cat. number 21870) supplemented with 10% FBS (Hyclone Laboratories Inc, Cat #SV30160.03), 1× Antibiotic-antimycotic (Gibco, Cat #15240-062), 2× Sodium pyruvate (Paneco, cat #F023), 2× Essential amino acids (Paneco, cat #F115/100), 1× Non-Essential amino acids (Paneco, cat #F116) at 37° C. in 5% CO2 atmosphere.
(§2) For the proliferation inhibition assay Ba/F3 (JAK2 wt) and Ba/F3 (JAK2 V617F) cells were seeded into a CellBIND® 384-well Flat Clear Bottom Black Polystyrene Microplates (Corning, USA, Cat #3770) at a density of 4000 cells per well in complete culture medium with or without 10 ng/ml rmIL-3 (RD systems, USA, Cat #403-ML-025) using Biomek FX/NX (384) liquid handler, 45 μl of cell suspension in complete culture medium per well. 500× compound's stocks in DMSO (Sigma Cat #D2650) were prepared in compounds plate (Diamond Well Plate, Axigen, Cat #P-384-120 SQ-C-S) applying Biomek 2000. 1 μl of 500× compounds stock was added to 49 μl of complete culture medium into Dilution plate (Diamond Well Plate, Axigen, Cat #P-384-120 SQ-C-S), mixed and then 5 μl of 10× compounds solution was transferred to cells using Biomek FX/NX (384) liquid handler. The centrifugation at 100 g for 1 min at Eppendorf 5810 followed. Final DMSO concentration in assay was 0.2%. All treatments were performed in technical and biological duplicates. Treated cells were incubated for 72 h at 37° C. with 5% CO2.
(§3) After 3 days of incubation, CellTiter-Glo Luminescent Cell Viability Assay (Promega) was performed. 10 μl of CellTiter-Glo (Promega, CAT #G7572) was added to the cells using Biomek FX/NX (384) liquid handler. The assay plate was centrifuged at 100 g for 1 min and luminescence signal was measured using Microplate Reader (CLARIOStar).

[3] = as above; type: cell-based; settings: mouse, Ba/F3 (JAK2 V617F) cells; with 10 ng/ml rmIL-3, 72 h; read-out: Ba/F3 JAK2 V617F + IL3, CC50 3 days
Procedure: as §1, §2, §3

[4] = Proliferation inhibition assay (CellTiter-Glo), Ba/F3 JAK2 wt; type: cell-based; settings: mouse, Ba/F3 (JAK2 wt) cells
Procedure: as §1, §2, §3

[5] = with 10 ng/ml rmIL-3, 72 h, read-out: Ba/F3 JAK2 wt + IL3, CC50 3 days
[6] = without IL3, 72 h, read-out: Ba/F3 JAK2 wt, CC50 3 days

T1 sequence (O60674 545-809 limits assumed): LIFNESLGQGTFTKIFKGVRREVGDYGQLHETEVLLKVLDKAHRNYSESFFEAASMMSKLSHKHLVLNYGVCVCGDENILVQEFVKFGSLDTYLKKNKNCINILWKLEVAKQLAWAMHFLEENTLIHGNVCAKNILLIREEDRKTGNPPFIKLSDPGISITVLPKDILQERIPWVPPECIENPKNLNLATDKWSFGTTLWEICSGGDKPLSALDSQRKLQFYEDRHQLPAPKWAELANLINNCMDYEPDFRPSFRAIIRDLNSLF

SMILES: COc1c(Nc2nc(Nc3cnn(C)c3)ncc2C(N)=O)cccc1-c1ccccn1 [Compound 2, 4-[2-methoxy-3-(2-pyridyl)anilino]-2-[(1-methylpyrazol-4-yl)amino]pyrimidine-5-carboxamide]
- EC50 [1]: 0.05 to 0.1 µM
- CC50 [2]: ≤ 0.5 µM
- CC50 at 72 h [3]: 1 to 5 µM
- CC50 at 72 h [4, 5]: > 10 µM
- CC50 at 72 h [4, 6]: > 10 µM

SMILES: CCn1nc(C)c(Nc2ncc(C(N)=O)c(Nc3cccc(-c4ncn(C)n4)c3OC)n2)c1C [Compound 18, 2-[(1-ethyl-3,5-dimethyl-pyrazol-4-yl)amino]-4-[2-methoxy-3-(1-methyl-1,2,4-triazol-3-yl)anilino]pyrimidine-5-carboxamide]
- EC50 [1]: > 0.1 µM
- CC50 [2]: 5 to 10 µM
- CC50 at 72 h [3]: > 10 µM
- CC50 at 72 h [4, 5]: > 10 µM
- CC50 at 72 h [4, 6]: > 10 µM

SMILES: COc1c(Nc2nc(Nc3cnn(C4CCNCC4)c3)ncc2C(N)=O)cccc1-c1ncn(C)n1 [Compound 7, 4-((2-Methoxy-3-(1-methyl-1H-1,2,4-triazol-3-yl)phenyl)amino)-2-((1-(piperidin-4-yl)-1H-pyrazol-4-yl)amino)pyrimidine-5-carboxamide 2,2,2-trifluoroacetate]
- EC50 [1]: 0.01 to 0.05 µM
- CC50 [2]: 1 to 5 µM
- CC50 at 72 h [3]: > 10 µM
- CC50 at 72 h [4, 5]: > 10 µM
- CC50 at 72 h [4, 6]: > 10 µM

SMILES: COc1c(Nc2nc(Nc3cnn(C)c3)ncc2C(N)=O)cccc1-c1ncn(C)n1 [Compound 1, 4-((2-Methoxy-3-(1-methyl-1H-1,2,4-triazol-3-yl)phenyl)amino)-2-((1-methyl-1H-pyrazol-4-yl)amino)pyrimidine-5-carboxamide]
- EC50 [1]: 0.01 to 0.05 µM
- CC50 [2]: 1 to 5 µM
- CC50 at 72 h [3]: 5 to 10 µM
- CC50 at 72 h [4, 5]: > 10 µM
- CC50 at 72 h [4, 6]: > 10 µM

SMILES: COc1c(Nc2nc(Nc3cnn(C4CCN(C)CC4)c3)ncc2C(N)=O)cccc1-c1nc2ccccc2o1 [Compound 32, 4-[3-(1,3-benzoxazol-2-yl)-2-methoxy-anilino]-2-[[1-(1-methyl-4-piperidyl)pyrazol-4-yl]amino]pyrimidine-5-carboxamide]
- EC50 [1]: 0.01 to 0.05 µM
- CC50 [2]: 0.5 to 1 µM
- CC50 at 72 h [4, 5]: 1 to 5 µM

SMILES: COCCn1cc(Nc2ncc(C(N)=O)c(Nc3cccc(-c4nc5ccccc5o4)c3OC)n2)cn1 [Compound 50]
- EC50 [1]: 0.01 to 0.05 µM
- CC50 [2]: ≤ 0.5 µM
- CC50 at 72 h [4, 5]: > 10 µM

SMILES: COc1c(Nc2nc(Nc3cnn(C45CC6CC(CC(C6)C4)C5)c3)ncc2C(N)=O)cccc1-c1nc2ccccc2o1 [Compound 49, 2-[[1-(1-adamantyl)pyrazol-4-yl]amino]-4-[3-(1,3-benzoxazol-2-yl)-2-methoxy-anilino]pyrimidine-5-carboxamide]
- EC50 [1]: > 0.1 µM
- CC50 [2]: 5 to 10 µM
- CC50 at 72 h [4, 5]: 5 to 10 µM

SMILES: CCOCCn1cc(Nc2ncc(C(N)=O)c(Nc3cccc(-c4ncn(C)n4)c3OC)n2)cn1 [Compound 55, 2-[[1-(2-ethoxyethyl)pyrazol-4-yl]amino]-4-[2-methoxy-3-(1-methyl-1,2,4-triazol-3-yl)anilino]pyrimidine-5-carboxamide]
- EC50 [1]: 0.01 to 0.05 µM
- CC50 [2]: 1 to 5 µM
- CC50 at 72 h [4, 5]: > 10 µM

SMILES: COc1c(Nc2nc(Nc3cnn(C4CCCCC4)c3)ncc2C(N)=O)cccc1-c1nc2ccccc2o1 [Compound 45, 4-[3-(1,3-benzoxazol-2-yl)-2-methoxy-anilino]-2-[(1-cyclohexylpyrazol-4-yl)amino]pyrimidine-5-carboxamide]
- EC50 [1]: > 0.1 µM
- CC50 [2]: 0.5 to 1 µM
- CC50 at 72 h [4, 5]: 5 to 10 µM

SMILES: COc1c(Nc2nc(Nc3cnn(C4CCN(C(C)C)CC4)c3)ncc2C(N)=O)cccc1-c1ncn(C)n1 [Compound 35, 2-[[1-(1-isopropyl-4-piperidyl)pyrazol-4-yl]amino]-4-[2-methoxy-3-(1-methyl-1,2,4-triazol-3-yl)anilino]pyrimidine-5-carboxamide]
- EC50 [1]: 0.01 to 0.05 µM
- CC50 [2]: 1 to 5 µM
- CC50 at 72 h [4, 5]: > 10 µM

SMILES: CCOCCn1cc(Nc2ncc(C(N)=O)c(Nc3cccc(-c4nc5ccccc5o4)c3OC)n2)cn1 [Compound 54]
- EC50 [1]: 0.01 to 0.05 µM
- CC50 [2]: ≤ 0.5 µM
- CC50 at 72 h [4, 5]: 1 to 5 µM

SMILES: COc1c(Nc2nc(Nc3cnn(C(C)C)c3)ncc2C(N)=O)cccc1-c1ccccn1 [Compound 38, 2-[(1-isopropylpyrazol-4-yl)amino]-4-[2-methoxy-3-(2-pyridyl)anilino]pyrimidine-5-carboxamide]
- EC50 [1]: 0.01 to 0.05 µM
- CC50 [2]: ≤ 0.5 µM
- CC50 at 72 h [4, 5]: 5 to 10 µM

SMILES: COCCCn1cc(Nc2ncc(C(N)=O)c(Nc3cccc(-c4ncn(CCCOC)n4)c3OC)n2)cn1 [Compound 53]
- EC50 [1]: 0.01 to 0.05 µM
- CC50 [2]: 1 to 5 µM
- CC50 at 72 h [4, 5]: > 10 µM

SMILES: COc1c(Nc2nc(Nc3cnn(C4CCN(C(C)C)CC4)c3)ncc2C(N)=O)cccc1-c1ccccn1 [Compound 48, 2-[[1-(1-isopropyl-4-piperidyl)pyrazol-4-yl]amino]-4-[2-methoxy-3-(2-pyridyl)anilino]pyrimidine-5-carboxamide]
- EC50 [1]: 0.05 to 0.1 µM
- CC50 [2]: ≤ 0.5 µM
- CC50 at 72 h [4, 5]: 1 to 5 µM

SMILES: COc1c(Nc2nc(Nc3cnn(CCN(CC(C)C)CC(C)C)c3)ncc2C(N)=O)cccc1-c1nc2ccccc2o1 [Compound 34]
- EC50 [1]: > 0.1 µM
- CC50 [2]: 1 to 5 µM
- CC50 at 72 h [4, 5]: 5 to 10 µM

SMILES: COc1c(Nc2nc(Nc3cnn(CCN(CC(C)C)CC(C)C)c3)ncc2C(N)=O)cccc1-c1ccccn1 [Compound 42, 2-[[1-[2-(diisobutylamino)ethyl]pyrazol-4-yl]amino]-4-[2-methoxy-3-(2-pyridyl)anilino]pyrimidine-5-carboxamide]
- EC50 [1]: > 0.1 µM
- CC50 [2]: 1 to 5 µM
- CC50 at 72 h [4, 5]: 5 to 10 µM

SMILES: COc1c(Nc2nc(Nc3cnn(C45CC6CC(CC(C6)C4)C5)c3)ncc2C(N)=O)cccc1-c1ccccn1 [Compound 41, 2-[[1-(1-adamantyl)pyrazol-4-yl]amino]-4-[2-methoxy-3-(2-pyridyl)anilino]pyrimidine-5-carboxamide]
- EC50 [1]: > 0.1 µM
- CC50 [2]: 1 to 5 µM
- CC50 at 72 h [4, 5]: 5 to 10 µM

SMILES: COc1c(Nc2nc(Nc3cnn(CCCN(C)C)c3)ncc2C(N)=O)cccc1-c1nc2ccccc2o1 [Compound 46, 4-[3-(1,3-benzoxazol-2-yl)-2-methoxy-anilino]-2-[[1-[3-(dimethylamino)propyl]pyrazol-4-yl]amino]pyrimidine-5-carboxamide]
- EC50 [1]: 0.05 to 0.1 µM
- CC50 [2]: ≤ 0.5 µM
- CC50 at 72 h [4, 5]: 1 to 5 µM

Reference: patent US20260217688A1, “INHIBITORS OF JAK2” (Llydaw Therapeutics, Inc., priority 2022, published 2026)
